One test relates to root defence pathways. Particulars: foliar application; cited from earlier work.
For another test, the system named is root parasitic nematodes. The conditions noted are these: root application; cited from earlier work.
Another test concerns M. graminicola. Kind of test: Infection experiment with JA/ET mutant and biosynthesis inhibitors, foliar spray. The format is in vivo, Meloidogyne graminicola. Particulars: inhibitor alone sprayed on wild-type (DIECA 100 μM, AoA 12.5 mM) vs wild-type/control plants; 12 days after inoculation. As for the experimental part:
(§1) M. graminicola originally isolated in the Philippines (Batangas) was cultured on susceptible rice plants. Second stage juveniles (J2s) were extracted using a sieve/tray extraction method and inoculation was done as described in Nahar et al., (2011). For susceptibility assays, at least two independent experiments were carried out, each time including eight plants per treatment. Twelve days after inoculation (dai), roots were stained using acid fuchsine (Nahar et al., 2011) to count galls and number of nematodes in the roots.
(§2) Reduced Ascorbic acid (AA, 20 mM), dehydroascorbic acid (DHA, 20 mM), ascorbate oxidase (AO, 20 U/ml), methyl jasmonate (MeJA, 100 μM), aminooxyacetic acid (AoA, 12.5 mM), diethyldithiocarbamic acid (DIECA, 100 μM) and ethephon (100 μM) were purchased from Sigma and dissolved in water (except MeJA that was first dissolved in a drop of ETOH) to attain the indicated concentration.
(§3) For foliar application, all chemicals were dissolved in water and 0.02% (v/v) of Tween20 as a surfactant was added prior to spraying on aerial portions of the rice plants. Control plants were sprayed with distilled water containing 0.02% Tween20. Eight plants per treatment were sprayed until run-off with 6.5 mL of solution (at 24 h prior to nematode inoculation, in cases where infected plants were used). The substrate was covered to avoid direct contact with the roots and/or nematodes.

Another test deals with rice seedlings. Put plainly: Evaluation of seedling growth after drenching rice seedlings. Particulars: 3-days old rice seedlings drenched with 1 mL (AA 20 mM, DHA 20 mM, AO 20 U/ml); 5 days after drenching; vs water control. The format is in vivo, Oryza sativa cv. Nipponbare. As for the experimental part: (§4) Rice—Seeds of wild-type rice Oryza sativa cv. Nipponbare were obtained from USDA (GSOR-100). Seeds were germinated on wet filter paper for 4-5 days at 30° C. and seedlings were then transferred to SAP-substrate (Sand mixed with Absorbent Polymer AquaPerla®, DCM, Belgium) and further grown at 28° C., under a light regime of (day/night) 12/12. Hoagland solution was given as a source of nutrients 3 times a week.
as §2
3-days old rice seedlings were drenched with 1 mL of AA (20 mM), AO (20 U/mL), DHA (20 mM) or water (H2O) as a negative control. Rice root length and dry root weight as well as the number of embryonic crown roots (ECR) were measured 5 days after drenching.

Test [1] relates to root-knot nematode M. graminicola. Put plainly: Susceptibility assay on rice plants, foliar spray. The conditions noted are these: foliar spray 24 h prior to inoculation (AA 20 mM, DHA 20 mM, AO 20 U/ml); 12 dai; vs control. The format is in vivo, Meloidogyne graminicola. As for the experimental part: as §1, §2, §3
The nature of test [2]: Ascorbate measurements in shoots and roots of foliar sprayed rice. The format is in vivo, Oryza sativa cv. Nipponbare. Particulars: 24 h after foliar application; vs control plants. The method, then:
as §3
[…] In each assay, 100 mg of crushed material was used per sample, and at least 4 biological replicates were analyzed per treatment. Reduced and oxidized AA were measured according to the method described in Ueda et al., 2013. Absorbance was monitored using a microplate reader (TECAN—Infinite200pro).

In test [3] the test system is root-knot nematode Meloidogyne graminicola. Put plainly: Susceptibility assay on rice plants, soil drench. The format is in vivo. Particulars: soil drench 24 h prior to inoculation (AA 20 mM, DHA 20 mM, AO 20 U/mL); twelve days after inoculation; vs control. The method, then:
as §1, §2
For soil application, 6.5 mL of each solution was drenched on the substrate, 24 h prior to nematode inoculation.

The subject of a further test is Heterodera schachtii. Kind of test: Sugar beet tolerance to beet cyst nematode infection after foliar spray. The format is in vivo. Particulars: three-weeks old sugar beet, foliar spray (AA 20 mM, AO 20 U/mL, DHA 20 mM), 250 H. schachtii per plant, 4 DAS (3 dai); for shoot height: DHA effect not statistically significant. The method, then:
(§5) Sugar beet—seeds of cv. Amarok were germinated on moist tissue for 4-5 days at 25° C. For longer experiments seedlings were transplanted to polyvinyl-chloride (PVC) tubes containing fine soil particles. All experiments were conducted in a plant growth room at 25° C., with a 16/8 h day/night regime. The plants were fertilized by supplying Hoagland solution as a source of nutrients 3 times a week.
BNC cysts were obtained from Iran and were maintained on sugar beet (cv. Amarok) plants. Cysts were obtained from stock cultures, by washing the infected soil and letting the cysts to float in water. Full cysts with eggs were hand-picked and allowed to dry before setting up for hatching. For second-stage juveniles (J2) to hatch, cysts were placed in 3 mM of […] and transferred to an incubator/shaker at a temperature of 25.5° C. at 70 rpm for 4 days (Kammerhofer et al., 2015). J2 were re-suspended in water and counted under a stereomicroscope. Around 250-300 J2 nematodes were inoculated per plant. One day before and after inoculation, plants were not supplied with any nutrients or water. To investigate the plant tolerance to BCN infection root length, shoot height, fresh root weight as well as the number of cysts were measured at different time points after spraying and/or inoculation. For all experiments, 8 individual plants were used per treatment.
as §2, §3

Test [4] relates to root-knot nematode Meloidogyne graminicola. Put plainly: Root growth in rice after foliar spray, nematode-infected conditions (tolerance). The conditions noted are these: 14-days old rice, foliar spray AO 20 U/mL, 250 nematodes per plant, time point not stated. The format is in vivo. The method, then: as §4, §1, §2, §3
The subject of another test is sugar beet plants. Kind of test: Root and shoot growth in uninfected sugar beet plants after foliar spray. The format is in vivo, Beta vulgaris cv. Amarok. The conditions noted are these: two-week old sugar beet, seven days later. The method, then:
as §5, §2, §3

Where [5] appears, read: foliar spray, effect not statistically significant.

Consider nine molecules from patent US20230104477A1, “USE OF DEHYDROASCORBIC ACID AGAINST NEMATODE INFECTION IN PLANTS” (Universiteit Gent, priority 2019, published 2023).

Consider `O=P(O)(O)CCCl` [ethephon], for which the “activation of root defence pathways” value with root defence pathways is reported as “can activate root defence pathways with varying efficacy”.
For the molecule `CC/C=C\CC1C(=O)CCC1CC(=O)OC` (stereo not drawn) [MeJA, methyl jasmonate], the “activation of root defence pathways” value in the test with root defence pathways is recorded as “can activate root defence pathways with varying efficacy”.
silicon: in the test on root parasitic nematodes, the “rice plant defence, tolerance or resistance against root parasitic nematodes” value (“rice plant defence” below) is reported as “enhances the rice plant defence system”.
On to `Cc1ncc(C[n+]2csc(CCO)c2C)c(N)n1` [thiamine], for which, in the test on root parasitic nematodes, the “rice plant defence” value was “enhances the rice plant defence system”.
For the molecule `NOCC(=O)O` [AoA, aminooxyacetic acid, reference compound], in the test on M. graminicola, the number of galls result is reported as “significantly higher number of galls”.
For the molecule `O=C1O[C@H]([C@@H](O)CO)C(O)=C1O` [AA, ascorbic acid], in the test on rice seedlings, the “number of embryonic crown roots (ECR)” value is “significantly fewer ECR” and the root length entry is recorded as “slightly shorter roots”. In test [1], the number of galls result is recorded as “no significant differences” and the number of nematodes result is given as “no significant differences”. In test [2], the “amount of reduced AA in roots” value is on record as “no changes” and the “amount of reduced AA in shoots” value is “significantly increased”. Also, in test [3], the number of galls result is “significantly lower number of galls” and the number of nematodes result is “lower number of nematodes”. For the same molecule, in the test with Heterodera schachtii, the root length entry is on record as “None of the other treatments (AA or AO) had significant effects”, the root weight entry is “None of the other treatments (AA or AO) had significant effects”, the shoot weight result was “None of the other treatments (AA or AO) had significant effects” and the shoot height entry is listed as “None of the other treatments (AA or AO) had significant effects”.
Regarding `CC(N)CC(=O)O` (stereo not drawn) [BABA, β-aminobutyric acid], the “rice plant defence” value with root parasitic nematodes is reported as “enhances the rice plant defence system”.
`CCN(CC)C(=S)S` [DIECA, diethyldithiocarbamic acid, reference compound]: in the test with M. graminicola, the number of galls entry was “significantly increased number of galls”.

B1: AO: ascorbate oxidase, purchased from Sigma, used at 20 U/ml (protein, UniProt P37064 1-552, looked up)
L-ascorbate oxidase: SQIRHYKWEVEYMFWAPNCNENIVMGINGQFPGPTIRANAGDSVVVELTNKLHTEGVVIHWHGILQRGTPWADGTASISQCAINPGETFFYNFTVDNPGTFFYHGHLGMQRSAGLYGSLIVDPPQGKKEPFHYDGEINLLLSDWWHQSIHKQEVGLSSKPIRWIGEPQTILLNGRGQFDCSIAAKYDSNLEPCKLKGSESCAPYIFHVSPKKTYRIRIASTTALAALNFAIGNHQLLVVEADGNYVQPFYTSDIDIYSGESYSVLITTDQNPSENYWVSVGTRARHPNTPPGLTLLNYLPNSVSKLPTSPPPQTPAWDDFDRSKNFTYRITAAMGSPKPPVKFNRRIFLLNTQNVINGYVKWAINDVSLALPPTPYLGAMKYNLLHAFDQNPPPEVFPEDYDIDTPPTNEKTRIGNGVYQFKIGEVVDVILQNANMMKENLSETHPWHLHGHDFWVLGYGDGKFSAEEESSLNLKNPPLRNTVVIFPYGWTAIRFVADNPGVWAFHCHIEPHLHMGMGVVFAEGVEKVGRIPTKALACGGTAKSLINNPKNP
B1: in the test on rice seedlings, the dry root weight entry is recorded as “some positive effects”, the “number of embryonic crown roots (ECR)” value is “some positive effects” and the root length result is reported as “no root length effects”. Further, the root length result in [4] is given as “slightly increased root length”. Further, in test [1], the number of galls result was “significantly lower number of galls” and the number of nematodes entry is listed as “lower number of nematodes”. Besides, in test [2], the “DHA level in roots” value is reported as “accumulating”; the “total levels of reduced and oxidized ascorbate in shoots” value is given as “slightly decreased”. Further, in test [3], the number of galls entry is recorded as “no significant difference” and the number of nematodes result is listed as “no significant difference”. For the same molecule, the root length entry in the test on sugar beet plants (foliar spray (DHA 20 mM, AO 20 U/mL), vs water control) is given as “significantly longer roots”. Further, in the test with sugar beet plants (setting [5]), the fresh root weight entry is reported as “positively affected” and the shoot length result is reported as “positively affected”. Also, in the test on Heterodera schachtii, the root length entry is recorded as “None of the other treatments (AA or AO) had significant effects”, the root weight result is recorded as “None of the other treatments (AA or AO) had significant effects”, the shoot weight result is on record as “None of the other treatments (AA or AO) had significant effects” and the shoot height result is “None of the other treatments (AA or AO) had significant effects”.
